According to the supplement of paper PMC10307832:

Assays:
Assay in all cases: relative viability (nuclei count vs DMSO), 5 days (fraction); higher = more cells survive
Carboplatin + Olaparib = compound: C1CC(C1)(C(=O)O)C(=O)O.[NH2-].[NH2-].[Pt+2] [Carboplatin] + O=C(c1cc(Cc2n[nH]c(=O)c3ccccc23)ccc1F)N1CCN(C(=O)C2CC2)CC1 [Olaparib] (partner 8 µM)
In short: (§1)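 Relative viability equals treated-well nuclei counts divided by vehicle-well nuclei counts. Counts came from 4× images of lung cancer cell lines grown in 1536-well plates for 5 days after pin-tool dosing on the day after seeding. Dosing used one drug alone or a fixed anchor-drug dose plus five library-drug doses (not always all listed) in √10 steps, and values are medians of duplicate plates.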

GSK126 + Palbociclib = compound: CC[C@H](C)N1C=C(C2=C(C=C(C=C21)C3=CN=C(C=C3)N4CCNCC4)C(=O)NCC5=C(C=C(NC5=O)C)C)C [GSK126] + CC(=O)c1c(C)c2cnc(Nc3ccc(N4CCNCC4)cn3)nc2n(C2CCCC2)c1=O [Palbociclib] (partner 0.5 µM)
In short: as §1

GSK126 + Foretinib = compound: CC[C@H](C)N1C=C(C2=C(C=C(C=C21)C3=CN=C(C=C3)N4CCNCC4)C(=O)NCC5=C(C=C(NC5=O)C)C)C [GSK126] + COc1cc2c(Oc3ccc(NC(=O)C4(C(=O)Nc5ccc(F)cc5)CC4)cc3F)ccnc2cc1OCCCN1CCOCC1 [Foretinib] (partner 0.25 µM)
In short: as §1

MLN4924 + Decitabine = compound: NS(=O)(=O)OC[C@@H]1C[C@@H](n2ccc3c(N[C@H]4CCc5ccccc54)ncnc32)C[C@@H]1O [MLN4924] + Nc1ncn([C@H]2C[C@H](O)[C@@H](CO)O2)c(=O)n1 [Decitabine] (partner 2 µM)
In short: as §1

| Cell Line | relative viability (Carboplatin + Olaparib; first compound 0.08 µM) | relative viability (Carboplatin + Olaparib; first compound 0.253 µM) | relative viability (Carboplatin + Olaparib; first compound 0.8 µM) | relative viability (Carboplatin + Olaparib; first compound 2.53 µM) | relative viability (Carboplatin + Olaparib; first compound 8 µM) | relative viability (GSK126 + Palbociclib; first compound 0.08 µM) | relative viability (GSK126 + Palbociclib; first compound 0.253 µM) | relative viability (GSK126 + Palbociclib; first compound 0.8 µM) | relative viability (GSK126 + Palbociclib; first compound 2.53 µM) | relative viability (GSK126 + Palbociclib; first compound 8 µM) | relative viability (GSK126 + Foretinib; first compound 0.08 µM) | relative viability (GSK126 + Foretinib; first compound 0.253 µM) | relative viability (GSK126 + Foretinib; first compound 0.8 µM) | relative viability (GSK126 + Foretinib; first compound 2.53 µM) | relative viability (GSK126 + Foretinib; first compound 8 µM) | relative viability (MLN4924 + Decitabine; first compound 0.04 µM) | relative viability (MLN4924 + Decitabine; first compound 0.1265 µM) | relative viability (MLN4924 + Decitabine; first compound 0.4 µM) | relative viability (MLN4924 + Decitabine; first compound 1.265 µM) | relative viability (MLN4924 + Decitabine; first compound 4 µM) |
| --- | --- | --- | --- | --- | --- | --- | --- | --- | --- | --- | --- | --- | --- | --- | --- | --- | --- | --- | --- | --- |
| NCI-H2009 | 0.65 | 0.653 | 0.658 | 0.594 | 0.437 | 0.183 | 0.176 | 0.181 | 0.257 | 0.322 | 1.25 | 1.25 | 1.15 | 1.18 | 1.35 | 0.342 | 0.289 | 0.218 | 0.174 | 0.118 |
| NCI-H2023 | 0.473 | 0.445 | 0.415 | 0.231 | 0.135 | 0.505 | 0.442 | 0.349 | 0.442 | 0.399 | 1.02 | 0.885 | 0.961 | 1.05 | 1.15 | 0.177 | 0.178 | 0.119 | 0.0603 | 0.062 |
| NCI-H2085 | 0.817 | 0.844 | 0.761 | 0.786 | 0.687 | 0.477 | 0.456 | 0.466 | 0.453 | 0.47 | 1.09 | 1.04 | 0.855 | 1.12 | 1.24 | 0.492 | 0.58 | 0.612 | 0.48 | 0.424 |
| NCI-H2087 | 0.69 | 0.674 | 0.578 | 0.553 | 0.328 | 0.217 | 0.215 | 0.191 | 0.212 | 0.206 | 1.2 | 0.999 | 1.05 | 1.28 | 1.13 | 0.197 | 0.248 | 0.253 | 0.0811 | 0.061 |
| NCI-H2126 | 0.936 | 0.959 | 0.903 | 0.915 | 0.763 | 0.343 | 0.359 | 0.327 | 0.39 | 0.354 | 1.19 | 0.847 | 1.21 | 1.28 | 1.25 | 0.526 | 0.49 | 0.425 | 0.293 | 0.231 |
| NCI-H2170 | 0.621 | 0.668 | 0.555 | 0.567 | 0.37 | 0.433 | 0.388 | 0.385 | 0.397 | 0.394 | 0.587 | 1.03 | 0.979 | 0.969 | 0.973 | 0.444 | 0.249 | 0.273 | 0.167 | 0.144 |
| NCI-H2342 | 0.447 | 0.497 | 0.394 | 0.357 | 0.372 | 0.566 | 0.575 | 0.508 | 0.572 | 0.522 | 1.16 | 1.05 | 0.998 | 1.05 | 1.16 | 0.695 | 0.75 | 0.718 | 0.643 | 0.468 |
| NCI-H2347 | 0.55 | 0.568 | 0.57 | 0.546 | 0.498 | 0.46 | 0.385 | 0.469 | 0.422 | 0.439 | 0.842 | 0.861 | 1.07 | 1.25 | 1.35 | 0.623 | 0.694 | 0.495 | 0.413 | 0.335 |
| NCI-H2405 | 0.965 | 0.926 | 0.841 | 0.821 | 0.66 | 0.586 | 0.507 | 0.537 | 0.557 | 0.523 | 1.03 | 1 | 1.02 | 1.06 | 1.02 | 0.659 | 0.483 | 0.406 | 0.28 | 0.28 |
| NCI-H3122 | 0.644 | 0.584 | 0.562 | 0.559 | 0.622 | 0.225 | 0.181 | 0.181 | 0.183 | 0.187 | 0.983 | 1.03 | 0.985 | 1.01 | 0.994 | 0.423 | 0.264 | 0.2 | 0.14 | 0.125 |
| PC-3 [JPC-3] | 1.23 | 1.14 | 1.12 | 1.04 | 0.835 | 0.516 | 0.565 | 0.565 | 0.488 | 0.485 | 1.02 | 1.02 | 1.02 | 1.01 | 0.997 | 0.808 | 0.83 | 0.408 | 0.46 | 0.451 |
| PC-14 | 0.266 | 0.266 | 0.171 | 0.118 | 0.0838 | 0.517 | 0.505 | 0.539 | 0.566 | 0.469 | 0.914 | 0.886 | 0.924 | 0.908 | 0.918 | 0.275 | 0.177 | 0.105 | 0.0656 | 0.104 |
| RERF-LC-KJ | 1.03 | 0.866 | 0.884 | 0.657 | 0.416 | 1.15 | 1.27 | 1.02 | 1.04 | 1.09 | 0.955 | 0.893 | 0.852 | 0.897 | 0.825 | 0.592 | 0.497 | 0.24 | 0.182 | 0.236 |
| SK-LU-1 | 0.517 | 0.483 | 0.387 | 0.425 | 0.356 | 0.402 | 0.364 | 0.412 | 0.389 | 0.414 | 0.899 | 0.788 | 0.795 | 0.973 | 0.964 | 0.645 | 0.661 | 0.309 | 0.29 | 0.24 |
| SK-MES-1 | 0.843 | 0.748 | 0.646 | 0.621 | 0.537 | 0.384 | 0.324 | 0.337 | 0.329 | 0.35 | 1.01 | 0.913 | 0.88 | 0.834 | 0.976 | 0.405 | 0.339 | 0.233 | 0.16 | 0.205 |
| SW 900 | 0.814 | 0.968 | 0.874 | 0.818 | 0.823 | 0.659 | 0.514 | 0.518 | 0.61 | 0.585 | 0.753 | 0.817 | 0.922 | 0.848 | 0.909 | – | 0.427 | 0.344 | 0.27 | 0.211 |
| SW 1573 | 0.579 | 0.552 | 0.477 | 0.493 | 0.234 | 0.496 | 0.472 | 0.435 | 0.361 | 0.403 | 1.09 | 1.04 | 0.929 | 1.05 | 0.949 | 0.525 | 0.313 | 0.158 | 0.0741 | 0.0974 |
